Assay results published in patent publication US9884842B2, “Combretastatin analogs” (The Board of Trustees of the University of Arkansas, priority 2013, dated 2018).
Where two headings read alike, the source gives them in different places.

Experiments:
NCI-H522 = test: NCI growth inhibition and cytotoxicity screen, Lung Cancer panel; assay type: cell-based; details: Homo sapiens; for CC50: read-out: LC50 (the source's name)
SF-295 = test: NCI growth inhibition and cytotoxicity screen, CNS Cancer panel; assay type: cell-based; details: Homo sapiens; for CC50: read-out: LC50 (the source's name)
MDA-MB-468 = test: cells; details: Homo sapiens; for GI50: MDA-MB-468; for CC50: MDA-MB-468, read-out: LC50
CCRF-CEM = test: NCI growth inhibition and cytotoxicity screen, Leukemia panel; details: Homo sapiens; for CC50: read-out: LC50
RPMI-8226 = test: as above; details: Homo sapiens; for GI50: RPMI-8226; for CC50: RPMI-8226, read-out: LC50
SR = test: as above; details: Homo sapiens
LOX-IMVI = test: NCI growth inhibition and cytotoxicity screen, Melanoma panel; details: Homo sapiens; for CC50: read-out: LC50
MALME-3M = test: as above; details: Homo sapiens; for CC50: read-out: LC50
SK-MEL-2 = test: as above; details: Homo sapiens; for GI50: SK-MEL-2; for CC50: SK-MEL-2, read-out: LC50
SK-MEL-28 = test: as above; details: Homo sapiens; for GI50: SK-MEL-28; for CC50: SK-MEL-28, read-out: LC50
SK-MEL-5 = test: as above; details: Homo sapiens; for GI50: SK-MEL-5; for CC50: SK-MEL-5, read-out: LC50
UACC-257 = test: as above; details: Homo sapiens; for GI50: UACC-257; for CC50: UACC-257, read-out: LC50
SF-539 = test: NCI growth inhibition and cytotoxicity screen, CNS Cancer panel; details: Homo sapiens; for GI50: SF-539; for CC50: SF-539, read-out: LC50
A549/ATCC = test: NCI growth inhibition and cytotoxicity screen, Lung Cancer panel; details: Homo sapiens; for GI50: A549; for CC50: A549, read-out: LC50
HOP-62 = test: as above; details: Homo sapiens; for GI50: HOP-62; for CC50: HOP-62, read-out: LC50
NCI-H226 = test: as above; details: Homo sapiens; for GI50: NCI-H226; for CC50: NCI-H226, read-out: LC50
HCT-116 = test: NCI growth inhibition and cytotoxicity screen, Colon Cancer panel; details: Homo sapiens; for GI50: HCT-116; for CC50: HCT-116, read-out: LC50
HT29 = test: as above; details: Homo sapiens; for GI50: HT-29; for CC50: HT-29, read-out: LC50
KM12 = test: as above; details: Homo sapiens; for GI50: KM12; for CC50: KM12, read-out: LC50
SW-620 = test: as above; details: Homo sapiens; for GI50: SW-620; for CC50: SW-620, read-out: LC50
A498 = test: NCI growth inhibition and cytotoxicity screen, Renal Cancer panel; details: Homo sapiens; for GI50: A498; for CC50: A498, read-out: LC50
ACHN = test: as above; details: Homo sapiens; for CC50: read-out: LC50
RXF 393 = test: as above; details: Homo sapiens; for GI50: RXF 393; for CC50: RXF 393, read-out: LC50
SN12C = test: as above; details: Homo sapiens; for CC50: read-out: LC50
BT-549 = test: NCI growth inhibition and cytotoxicity screen, Breast Cancer panel; details: Homo sapiens; for GI50: BT-549; for CC50: BT-549, read-out: LC50
OVCAR-8 = test: NCI growth inhibition and cytotoxicity screen, Ovarian Cancer panel; details: Homo sapiens; for GI50: OVCAR-8; for CC50: OVCAR-8, read-out: LC50
PC-3 = test: NCI growth inhibition and cytotoxicity screen, Prostate Cancer panel; details: Homo sapiens; for GI50: PC-3; for CC50: PC-3, read-out: LC50
DU-145 = test: as above; details: Homo sapiens; for GI50: DU-145; for CC50: DU-145, read-out: LC50
[1] = system: full panel of 60 different cancer cell lines; test: NCI five dose screen, full panel summary; assay type: cell-based, human; details: for GI50: Homo sapiens
[2] = NCI-H522, Table 1, cell line NCIH522 (Lung Cancer)
[3] = SF-295, Table 1, cell line SF-2395 (CNS Cancer)
[4] = Table 2, cell line NCI-H522 (Lung Cancer)
[5] = Table 2, cell line SF-295 (CNS Cancer)

Structure (SMILES): COc1cc(/C=C/c2cc3ccccc3o2)cc(OC)c1OC [Formula (I)(c)]
- GI50 (NCI-H522; [2]): 0.43 nM
- CC50 (NCI-H522; [2]): > 100000 nM
- GI50 (SF-295; [3]): 0.35 nM
- CC50 (SF-295; [3]): > 100000 nM
- GI50 (MDA-MB-468): 0.66 nM
- CC50 (MDA-MB-468): > 100000 nM
- GI50 (CCRF-CEM): 0.42 nM
- CC50 (CCRF-CEM): > 100000 nM
- GI50 (RPMI-8226): 0.7 nM
- CC50 (RPMI-8226): > 100000 nM
- GI50 (SR): 0.09 nM
- CC50 (SR; read-out: LC50): > 100000 nM
- GI50 (LOX-IMVI): 0.89 nM
- CC50 (LOX-IMVI): 60400 nM
- GI50 (MALME-3M): 0.41 nM
- CC50 (MALME-3M): 86300 nM
- GI50 (SK-MEL-2): 0.76 nM
- CC50 (SK-MEL-2): > 100000 nM
- GI50 (SK-MEL-28): 0.83 nM
- CC50 (SK-MEL-28): > 100000 nM
- GI50 (SK-MEL-5): 0.34 nM
- CC50 (SK-MEL-5): 42000 nM
- GI50 (UACC-257): 16.4 nM
- CC50 (UACC-257): > 100000 nM
- GI50 (SF-539): 0.27 nM
- CC50 (SF-539): > 100000 nM
- GI50 (A549/ATCC): 0.61 nM
- CC50 (A549/ATCC): > 100000 nM
- GI50 (HOP-62): 0.77 nM
- CC50 (HOP-62): > 100000 nM
- GI50 (NCI-H226): 1.1 nM
- CC50 (NCI-H226): > 100000 nM
- GI50 (HCT-116): 0.522 nM
- CC50 (HCT-116): 77000 nM
- GI50 (HT29): 0.37 nM
- CC50 (HT29): > 100000 nM
- GI50 (KM12): 0.5 nM
- CC50 (KM12): > 100000 nM
- GI50 (SW-620): 0.44 nM
- CC50 (SW-620): > 100000 nM
- GI50 (A498): 0.4 nM
- CC50 (A498): 48400 nM
- GI50 (ACHN): 0.86 nM
- CC50 (ACHN): > 100000 nM
- GI50 (RXF 393): 0.32 nM
- CC50 (RXF 393): > 100000 nM
- GI50 (SN12C): 4.09 nM
- CC50 (SN12C): > 100000 nM
- GI50 (BT-549): 1.09 nM
- CC50 (BT-549): 79500 nM
- GI50 (OVCAR-8): 2.05 nM
- CC50 (OVCAR-8): > 100000 nM
- GI50 (PC-3): 0.52 nM
- CC50 (PC-3): > 100000 nM
- GI50 (DU-145): 1.86 nM
- CC50 (DU-145): > 100000 nM

Structure (SMILES): COc1cc(OC)cc(/C(C#N)=C/c2cnc3ccccc3c2)c1 [PNR-4-85, (Z)-3-(quinolin-3-yl)-2-(3,5-dimethoxyphenyl)acrylonitrile]
- GI50 (NCI-H522; [4]): 69 nM
- CC50 (NCI-H522; [4]): > 100000 nM
- GI50 (SF-295; [5]): 243 nM
- CC50 (SF-295; [5]): > 100000 nM
- GI50 ([1]; range over the potently inhibited cell lines, read-out: GI50 ranging (potently inhibited cancer cell lines)): 53 to 903 nM
- GI50 ([1]; read-out: average GI50 value on all the cancer cell lines): 2210 nM
- potent growth inhibition on % of the cancer cell lines ([1]; share of the cancer cell lines potently inhibited): 81%
- GI50 (MDA-MB-468): 217 nM
- CC50 (MDA-MB-468): > 100000 nM
- GI50 (CCRF-CEM): 332 nM
- CC50 (CCRF-CEM): > 100000 nM
- GI50 (RPMI-8226): 332 nM
- CC50 (RPMI-8226): > 100000 nM
- GI50 (LOX-IMVI): 672 nM
- CC50 (LOX-IMVI): > 100000 nM
- GI50 (MALME-3M): 635 nM
- CC50 (MALME-3M): > 100000 nM
- GI50 (SK-MEL-2): 709 nM
- CC50 (SK-MEL-2): > 100000 nM
- GI50 (SK-MEL-28): 1400 nM
- CC50 (SK-MEL-28): > 100000 nM
- GI50 (SK-MEL-5): 249 nM
- CC50 (SK-MEL-5): > 100000 nM
- GI50 (UACC-257): 12800 nM
- CC50 (UACC-257): > 100000 nM
- GI50 (SF-539): 289 nM
- CC50 (SF-539): > 100000 nM
- GI50 (A549/ATCC): 556 nM
- CC50 (A549/ATCC): > 100000 nM
- GI50 (HOP-62): 793 nM
- CC50 (HOP-62): > 100000 nM
- GI50 (NCI-H226): 62200 nM
- CC50 (NCI-H226): > 100000 nM
- GI50 (HCT-116): 420 nM
- CC50 (HCT-116): > 100000 nM
- GI50 (HT29): 362 nM
- CC50 (HT29): > 100000 nM
- GI50 (KM12): 409 nM
- CC50 (KM12): > 100000 nM
- GI50 (SW-620): 352 nM
- CC50 (SW-620): > 100000 nM
- GI50 (A498): 333 nM
- CC50 (A498): > 100000 nM
- GI50 (ACHN): 1190 nM
- CC50 (ACHN): > 100000 nM
- GI50 (RXF 393): 297 nM
- CC50 (RXF 393): > 100000 nM
- GI50 (SN12C): 661 nM
- CC50 (SN12C): > 100000 nM
- GI50 (BT-549): 388 nM
- CC50 (BT-549): > 100000 nM
- GI50 (OVCAR-8): 584 nM
- CC50 (OVCAR-8): > 100000 nM
- GI50 (PC-3): 506 nM
- CC50 (PC-3): > 100000 nM
- GI50 (DU-145): 505 nM
- CC50 (DU-145): > 100000 nM
